Values quoted from earlier work in patent publication US20050256196A1, “Decreasing brain neuronal glutamate levels using alpha-keto branched chain amino acids” (Odessa Pharma, priority 2004, published 2005).

Key:
[1] = in vivo
glutamine synthetase [2] = target: T1, glutamine synthetase (Rattus norvegicus, UniProt P09606); parameters: known convulsant doses of MSO (MW 179) to rats; host or cells: rats, in vivo (endogenous enzyme)
glutamine synthetase [3] = target: T1, glutamine synthetase; details: normal animals after MSO; reduced from 5.6
glutamine synthetase [4] = target: T1, glutamine synthetase
[5] = rats, known convulsant doses of MSO

T1 sequence (P09606 2-373 limits assumed): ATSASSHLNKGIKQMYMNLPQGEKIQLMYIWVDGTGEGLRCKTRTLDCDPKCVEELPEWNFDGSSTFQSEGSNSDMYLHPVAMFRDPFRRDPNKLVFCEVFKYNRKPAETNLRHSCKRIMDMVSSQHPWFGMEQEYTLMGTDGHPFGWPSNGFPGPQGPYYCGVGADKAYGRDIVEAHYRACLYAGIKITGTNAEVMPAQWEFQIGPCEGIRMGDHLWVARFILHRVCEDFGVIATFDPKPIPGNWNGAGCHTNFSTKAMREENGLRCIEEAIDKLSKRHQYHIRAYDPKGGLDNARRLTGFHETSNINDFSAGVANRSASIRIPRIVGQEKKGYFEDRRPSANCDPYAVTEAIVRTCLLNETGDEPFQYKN

## CP(=O)(O)CCC(N)C(=O)O [Glufosinate, ammonium-D-L-homoalanine-4-yl(methyl)-phosphinate]
[1]
  crossing of the blood-brain barrier: does not cross the blood-brain barrier

## CSCC[C@H](N)C(=O)O [L-methionine]
Glutamine synthetase [2]; [5]
  convulsant activity of MSO on simultaneous administration of L-methionine: prevents the convulsant activity
  glutamine synthetase inhibitory activity of MSO on simultaneous administration of L-methionine: preserves the glutamine synthetase inhibitory activity

## CS(=N)(=O)CC[C@H](N)C(=O)O (stereo partly drawn) [MSO, L-methionine S-sulfoximine]
Glutamine synthetase [2]; depending on the dosage
  convulsant effect: can cause periodic convulsions
Glutamine synthetase [3]
  brain levels of glutamine: 1.8 mmol/kg brain
Glutamine synthetase [4]
  reduction of nerve terminal glutamate levels: 52%
Glutamine synthetase [4]; normal animals
  reduction of brain astrocyte levels of glutamine: 66%
